Assay [1] deals with Genome polyprotein (dengue virus type 2) (UniProt P29990). The assay can be described thus: Inhibition of dengue2 virus NS2B/NS3 protease activity for Ac-Thr-Arg-Arg-MCA cleavage at 120 ppm.
The target is the same in assay [2]. The assay can be described thus: Inhibition of dengue2 virus NS2B/NS3 protease activity for Ac-Thr-Arg-Arg-MCA cleavage at 240 ppm.
Assay [3] shares this target. Kind of assay: Inhibition of dengue2 virus NS2B/NS3 protease activity for Ac-Thr-Arg-Arg-MCA cleavage at 400 ppm.
A further assay has as its target Genome polyprotein (dengue virus type 2, UniProt P29990). The assay can be described thus: Inhibition of dengue2 virus NS3 protease.
Assay [4] concerns the target Genome polyprotein (dengue virus type 2) (UniProt P29990). The assay can be described thus: Inhibition of dengue2 virus NS2B/NS3 protease activity for Boc-Gly-Arg-Arg-MCA cleavage at 120 ppm.
The target is the same in assay [5]. The assay can be described thus: Inhibition of dengue2 virus NS2B/NS3 protease activity for Boc-Gly-Arg-Arg-MCA cleavage at 400 ppm.
The target is the same in assay [6]. The assay can be described thus: Inhibition of dengue2 virus NS2B/NS3 protease activity for Boc-Gly-Arg-Arg-MCA cleavage at 240 ppm.
Assay [7] has the same target. The assay can be described thus: Inhibition of dengue2 virus NS2B/NS3 protease activity for Boc-Gly-Arg-Arg-MCA cleavage at 40 ppm.
For assay [8] the target is unchanged. The assay can be described thus: Inhibition of dengue2 virus NS2B/NS3 protease activity for Boc-Gly-Arg-Arg-MCA cleavage at 80 ppm.
The target is the same in assay [9]. The assay can be described thus: Inhibition of dengue2 virus NS2B/NS3 protease activity for Boc-Gly-Arg-Arg-MCA cleavage at 160 ppm.

What is called inhibition is the drop in the measured response relative to a control, in per cent. A higher inhibition goes with strong suppression. The Ki is a dissociation constant, usually derived from enzyme kinetics or from competition with a known ligand.

On to `COc1cc(O)c2c(c1)O[C@H](c1ccccc1)CC2=O` [PINOSTROBIN], for which the results for the inhibition in [1], in assay [2] and in assay [3] were 76.7%, 80.7% and 88.7%, respectively. Besides, on Genome polyprotein, the affinity, expressed as Ki, was 345 µM.

Consider `O=C1C[C@@H](c2ccccc2)Oc2cc(O)cc(O)c21`, for which the results for the inhibition in assay [4], in assay [5] and in assay [6] were 30.1%, 56.1% and 47.3%, respectively.

With `COc1cc(O)c(C(=O)[C@@H]2[C@H](CC=C(C)C)C(C)=CC[C@H]2c2ccccc2)c(O)c1` [PANDURATIN A], the inhibition in assay [7] is 27.1%; in assay [4], 87.7%; in assay [1], 47.5%; in assay [8], 66.7%; in [2] it was 59.6%; in assay [9], 93.7%. The values for the inhibition in assay [5], in assay [3] and in assay [6] were 99.8%, 90.4% and 92.2%, respectively. Besides, the inhibition constant (Ki) at Genome polyprotein turned out to be 25 µM.

On to `CC(C)=CC[C@@H]1C(C)=CC[C@@H](c2ccccc2)[C@@H]1C(=O)c1c(O)cc(O)cc1O` [4-HYDROXYPANDURATIN A], for which the inhibition in assay [7] worked out at 52%; in assay [4], 87.6%; in [1], 90.4%; in assay [8], 78.1%; in assay [2], 96.1%; in assay [9], 96%. In addition, the results for the inhibition in assay [5], in [3] and in assay [6] were 99.8%, 99.2% and 97.3%, respectively. This molecule yielded a Ki at Genome polyprotein of 21 µM.

As for `COc1cc(O)cc(O)c1C(=O)/C=C/c1ccccc1` [CARDAMOMIN], the inhibition in [4] was 39.4%; in [5] it was 71.3%; in assay [6], 50.1%. The molecule also gave a Ki at Genome polyprotein of 377 µM.

These data come from ChEMBL document CHEMBL1148500, “Inhibitory activity of cyclohexenyl chalcone derivatives and flavonoids of fingerroot, Boesenbergia rotunda (L.), towards dengue-2 virus NS3 protease” (Bioorg Med Chem Lett, 2006).
